Values of other authors in patent US20040138296A1, “Amyloid immunization and Cox-2 inhibitors for the treatment of alzheimer's disease” (Pharmacia Corporation, priority 2002, published 2004).

Legend:
AD patients [1] = conditions: for other adverse effects: metrifonate in Phase III trials
[2] = test system: glia reaction, iNOS production; conditions: once a day, seven days following the injection
[3] = test system: microglial and astrocytic activation; conditions: adult rats, Abeta (1-42) into nucleus basalis
NG108-15 cells = conditions: by inhibition of APP mRNA level
[4] = test system: mild or moderately impaired Alzheimer's disease patients; conditions: 100-150 mg, 6 months
AD patients [5] = conditions: over 300 AD patients
neurons = conditions: Abeta (25-35) and Abeta (1-40)

COP(=O)(OC)C(O)C(Cl)(Cl)Cl (centres unmarked) [metrifonate]
other adverse effects (AD patients [1]; patients): leg cramps and muscle cramps

CS(=O)(=O)Nc1ccc([N+](=O)[O-])cc1Oc1ccccc1 [nimesulide, N-(4-Nitro-2-phenoxy-phenyl)-methanesulfonamide]
astrocytic reaction [2]: no effect on astrocytic reaction | microglia reaction [2]: attenuated microglia reaction | number of iNOS-positive cells [2]: reduced the number of iNOS-positive cells

CS(=O)(=O)c1ccc(C2=C(c3ccccc3)C(=O)OC2)cc1 [rofecoxib]
microglial and astrocytic activation [3]: attenuated microglial and astrocytic activation

Nc1c2c(nc3ccccc13)CCCC2 [Tacrine]
half-life (AD patients [1]; cholinesterase inhibitor in AD use): short half-life | hepatotoxicity (AD patients [1]; patients): hepatotoxic effects in a number of patients

COc1ccc2c(c1)c(CC(=O)O)c(C)n2C(=O)c1ccc(Cl)cc1 [indomethacin]
production of amyloid β-peptide and a secreted form of APP (NG108-15 cells): suppressed production | cognitive decline versus placebo [4]: appeared to protect the patients

COc1cc2c(cc1OC)C(=O)C(CC1CCN(Cc3ccccc3)CC1)C2 (centres unmarked) [Donepezil]
AD-associated deterioration (AD patients [1]; controlled trials, mild to moderately severe AD patients): can delay AD-associated deterioration | gastrointestinal side effects (AD patients [1]; patients): relatively low incidence of gastrointestinal side effects

C#CCN(C)[C@H](C)Cc1ccccc1 [selegeline, Selegiline]
progression of the disease (AD patients [5]): slow the progression of the disease

CCN1CC/C(=C\c2cc(C(C)(C)C)c(O)c(C(C)(C)C)c2)S1(=O)=O [Compound S-2474]
Abeta induced cell death of neurons (neurons): significantly prevented

CC(C)Cc1ccc(C(C)C(=O)O)cc1 (centres unmarked) [ibuprofen]
astrocytic reaction [2]: no effect on astrocytic reaction | microglia reaction [2]: attenuated microglia reaction | number of iNOS-positive cells [2]: reduced the number of iNOS-positive cells

CCN(C)C(=O)Oc1cccc([C@H](C)N(C)C)c1 [Rivastigmine]
duration of action (AD patients [1]; human, in vivo): 10 h | gastrointestinal side effects (AD patients [1]; patients): some gastrointestinal side effects | other adverse effects (AD patients [1]; patients): weight loss

Cc1c(C)c2c(c(C)c1O)CC[C@@](C)(CCC[C@H](C)CCC[C@H](C)CCCC(C)C)O2 [vitamin E, alpha-tocopherol]
progression of the disease (AD patients [5]): slow the progression of the disease
